Reference: patent US10597388B2, “Pyridazinone herbicides” (FMC CORPORATION, priority 2014, dated 2020)

Legend:
Assay in all cases: Test C greenhouse herbicide test, pre- and postemergence
Type in all cases: in vivo
[1] = test system: crabgrass, large (large crabgrass, Digitaria sanguinalis)
Outline: (§1)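 Pre- and postemergence greenhouse screen; values are visual control ratings, 0 meaning no effect and 100 complete kill, assigned relative to untreated plants after 13 to 15 d.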

[2] = test system: galium (catchweed bedstraw, Galium aparine)
Outline: as §1

[3] = test system: oilseed rape (Brassica napus)
Outline: as §1

[4] = test system: blackgrass (Alopecurus myosuroides)
Outline: as §1

[5] = test system: soybean (Glycine max)
Outline: as §1

[6] = test system: morningglory (Ipomoea coccinea)
Outline: as §1

[7] = test system: nutsedge, yellow (yellow nutsedge, Cyperus esculentus)
Outline: as §1

[8] = test system: corn (Zea mays)
Outline: as §1

[9] = test system: lambsquarters (Chenopodium album)
Outline: as §1

[10] = test system: foxtail, giant (giant foxtail, Setaria faberii)
Outline: as §1

[11] = test system: barnyardgrass (Echinochloa crus-galli)
Outline: as §1

[12] = test system: ragweed (common ragweed, Ambrosia elatior)
Outline: as §1

[13] = test system: ryegrass, Italian (Italian ryegrass, Lolium multiflorum)
Outline: as §1

[14] = test system: waterhemp (common waterhemp, Amaranthus rudis)
Outline: as §1

[15] = test system: velvetleaf (Abutilon theophrasti)
Outline: as §1

[16] = Postemergence, 31 g ai/ha, scale 0 to 100 (0 no effect, 100 complete control)
[17] = Postemergence, 62 g ai/ha, 0 to 100 scale (0 no effect, 100 complete control)
[18] = Postemergence, 250 g ai/ha, scale 0 to 100, 0 no effect, 100 complete control, 13 to 15 d
[19] = Preemergence, 31 g ai/ha, scale 0 to 100, 0 is no effect, 100 is complete control
[20] = Preemergence, 62 g ai/ha, scale 0 to 100, 0 is no effect, 100 is complete control
[21] = Preemergence, 125 g ai/ha, scale 0 to 100, 0 is no effect, 100 is complete control
[22] = Preemergence, 250 g ai/ha, scale 0 to 100, 0 no effect, 100 complete control
[23] = postemergence, 125 g ai/ha, scale 0 to 100, 0 no effect, 100 complete control

## COC(=O)Oc1c(C)nn(C)c(=O)c1-c1ccc(Br)c2ccccc12 [Compound 145]
[1]; [16]
  Plant response rating, Crabgrass, Large: 15
[1]; [17]
  Crabgrass, Large plant response rating: 10
[1]; [18]
  Plant response rating, Crabgrass, Large: 20
[1]; [19]
  Plant response rating, Crabgrass, Large: 5
[1]; [20]
  Plant response rating, Crabgrass, Large: 50
[1]; [21]
  Plant response rating, Crabgrass, Large: 55
[1]; [22]
  Crabgrass, Large plant response rating: 55
[1]; [23]
  Crabgrass, Large plant response rating: 10
[2]; [16]
  Plant response rating, Galium: 90
[2]; [17]
  Galium plant response rating: 95
[2]; [18]
  Plant response rating, Galium: 100
[2]; [19]
  Plant response rating, Galium: 90
[2]; [20]
  Plant response rating, Galium: 98
[2]; [21]
  Plant response rating, Galium: 100
[2]; [22]
  Galium plant response rating: 98
[2]; [23]
  Galium plant response rating: 98
[3]; [16]
  Plant response rating, Oilseed Rape: 98
[3]; [17]
  Oilseed Rape plant response rating: 98
[3]; [18]
  Plant response rating, Oilseed Rape: 90
[3]; [19]
  Plant response rating, Oilseed Rape: 5
[3]; [20]
  Plant response rating, Oilseed Rape: 90
[3]; [21]
  Plant response rating, Oilseed Rape: 90
[3]; [22]
  Oilseed Rape plant response rating: 98
[3]; [23]
  Oilseed Rape plant response rating: 95
[4]; [16]
  Plant response rating, Blackgrass: 5
[4]; [17]
  Blackgrass plant response rating: 0
[4]; [18]
  Plant response rating, Blackgrass: 90
[4]; [19]
  Plant response rating, Blackgrass: 10
[4]; [20]
  Plant response rating, Blackgrass: 30
[4]; [21]
  Plant response rating, Blackgrass: 60
[4]; [22]
  Blackgrass plant response rating: 60
[4]; [23]
  Blackgrass plant response rating: 30
[5]; [16]
  Plant response rating, Soybean: 40
[5]; [17]
  Soybean plant response rating: 40
[5]; [18]
  Plant response rating, Soybean: 70
[5]; [19]
  Plant response rating, Soybean: 0
[5]; [20]
  Plant response rating, Soybean: 55
[5]; [21]
  Plant response rating, Soybean: 75
[5]; [22]
  Soybean plant response rating: 80
[5]; [23]
  Soybean plant response rating: 55
[6]; [16]
  Plant response rating, Morningglory: 95
[6]; [17]
  Morningglory plant response rating: 98
[6]; [18]
  Plant response rating, Morningglory: 100
[6]; [19]
  Plant response rating, Morningglory: 75
[6]; [20]
  Plant response rating, Morningglory: 80
[6]; [21]
  Plant response rating, Morningglory: 98
[6]; [22]
  Morningglory plant response rating: 100
[6]; [23]
  Morningglory plant response rating: 100
[7]; [16]
  Plant response rating, Nutsedge, Yellow: 70
[7]; [17]
  Nutsedge, Yellow plant response rating: 90
[7]; [18]
  Plant response rating, Nutsedge, Yellow: 95
[7]; [19]
  Plant response rating, Nutsedge, Yellow: 35
[7]; [20]
  Plant response rating, Nutsedge, Yellow: 85
[7]; [21]
  Plant response rating, Nutsedge, Yellow: 95
[7]; [22]
  Nutsedge, Yellow plant response rating: 90
[7]; [23]
  Nutsedge, Yellow plant response rating: 85
[8]; [16]
  Plant response rating, Corn: 10
[8]; [17]
  Corn plant response rating: 5
[8]; [18]
  Plant response rating, Corn: 10
[8]; [19]
  Plant response rating, Corn: 0
[8]; [20]
  Plant response rating, Corn: 0
[8]; [21]
  Plant response rating, Corn: 0
[8]; [22]
  Corn plant response rating: 15
[8]; [23]
  Corn plant response rating: 5
[9]; [16]
  Plant response rating, Lambsquarters: 98
[9]; [17]
  Lambsquarters plant response rating: 98
[9]; [18]
  Plant response rating, Lambsquarters: 100
[9]; [19]
  Plant response rating, Lambsquarters: 90
[9]; [20]
  Plant response rating, Lambsquarters: 90
[9]; [21]
  Plant response rating, Lambsquarters: 100
[9]; [22]
  Lambsquarters plant response rating: 100
[9]; [23]
  Lambsquarters plant response rating: 100
[10]; [16]
  Plant response rating, Foxtail, Giant: 20
[10]; [17]
  Foxtail, Giant plant response rating: 25
[10]; [18]
  Plant response rating, Foxtail, Giant: 55
[10]; [19]
  Plant response rating, Foxtail, Giant: 35
[10]; [20]
  Plant response rating, Foxtail, Giant: 60
[10]; [21]
  Plant response rating, Foxtail, Giant: 75
[10]; [22]
  Foxtail, Giant plant response rating: 95
[10]; [23]
  Foxtail, Giant plant response rating: 25
[11]; [16]
  Plant response rating, Barnyardgrass: 20
[11]; [17]
  Barnyardgrass plant response rating: 15
[11]; Postemergence, 125 g ai/ha, scale 0 to 100, 0 is no effect, 100 is complete control
  Plant response rating, Barnyardgrass: 30
[11]; [18]
  Plant response rating, Barnyardgrass: 70
[11]; [19]
  Plant response rating, Barnyardgrass: 10
[11]; [20]
  Plant response rating, Barnyardgrass: 35
[11]; [21]
  Plant response rating, Barnyardgrass: 75
[11]; [22]
  Barnyardgrass plant response rating: 95
[12]; [16]
  Plant response rating, Ragweed: 0
[12]; [17]
  Ragweed plant response rating: 0
[12]; [18]
  Plant response rating, Ragweed: 25
[12]; [19]
  Plant response rating, Ragweed: 55
[12]; [20]
  Plant response rating, Ragweed: 65
[12]; [21]
  Plant response rating, Ragweed: 85
[12]; [22]
  Ragweed plant response rating: 90
[12]; [23]
  Ragweed plant response rating: 5
[13]; [16]
  Plant response rating, Ryegrass, Italian: 5
[13]; [17]
  Ryegrass, Italian plant response rating: 15
[13]; [18]
  Plant response rating, Ryegrass, Italian: 40
[13]; [19]
  Plant response rating, Ryegrass, Italian: 100
[13]; [20]
  Plant response rating, Ryegrass, Italian: 100
[13]; [21]
  Plant response rating, Ryegrass, Italian: 100
[13]; [22]
  Ryegrass, Italian plant response rating: 100
[13]; [23]
  Ryegrass, Italian plant response rating: 30
[14]; [16]
  Plant response rating, Waterhemp: 95
[14]; [17]
  Waterhemp plant response rating: 100
[14]; [18]
  Plant response rating, Waterhemp: 100
[14]; [19]
  Plant response rating, Waterhemp: 85
[14]; [20]
  Plant response rating, Waterhemp: 98
[14]; [21]
  Plant response rating, Waterhemp: 98
[14]; [22]
  Waterhemp plant response rating: 100
[14]; [23]
  Waterhemp plant response rating: 100
[15]; [16]
  Plant response rating, Velvetleaf: 85
[15]; [17]
  Velvetleaf plant response rating: 90
[15]; [18]
  Plant response rating, Velvetleaf: 100
[15]; [19]
  Plant response rating, Velvetleaf: 40
[15]; [20]
  Plant response rating, Velvetleaf: 85
[15]; [21]
  Plant response rating, Velvetleaf: 95
[15]; [22]
  Velvetleaf plant response rating: 100
[15]; [23]
  Velvetleaf plant response rating: 98

## CC(=O)Oc1c(Cl)nn(C)c(=O)c1-c1c(C)sc2ccc(C(F)(F)F)cc12 [Compound 152]
[1]; [19]
  Plant response rating, Crabgrass, Large: 0
[1]; [20]
  Plant response rating, Crabgrass, Large: 0
[1]; [21]
  Plant response rating, Crabgrass, Large: 10
[1]; [22]
  Crabgrass, Large plant response rating: 10
[2]; [19]
  Plant response rating, Galium: 50
[2]; [20]
  Plant response rating, Galium: 45
[2]; [21]
  Plant response rating, Galium: 95
[2]; [22]
  Galium plant response rating: 100
[3]; [19]
  Plant response rating, Oilseed Rape: 50
[3]; [20]
  Plant response rating, Oilseed Rape: 85
[3]; [21]
  Plant response rating, Oilseed Rape: 95
[3]; [22]
  Oilseed Rape plant response rating: 100
[4]; [19]
  Plant response rating, Blackgrass: 5
[4]; [20]
  Plant response rating, Blackgrass: 5
[4]; [21]
  Plant response rating, Blackgrass: 30
[4]; [22]
  Blackgrass plant response rating: 35
[5]; [19]
  Plant response rating, Soybean: 0
[5]; [20]
  Plant response rating, Soybean: 5
[5]; [21]
  Plant response rating, Soybean: 5
[5]; [22]
  Soybean plant response rating: 10
[6]; [19]
  Plant response rating, Morningglory: 10
[6]; [20]
  Plant response rating, Morningglory: 40
[6]; [21]
  Plant response rating, Morningglory: 75
[6]; [22]
  Morningglory plant response rating: 90
[7]; [19]
  Plant response rating, Nutsedge, Yellow: 5
[7]; [20]
  Plant response rating, Nutsedge, Yellow: 20
[7]; [21]
  Plant response rating, Nutsedge, Yellow: 55
[7]; [22]
  Nutsedge, Yellow plant response rating: 85
[8]; [19]
  Plant response rating, Corn: 15
[8]; [20]
  Plant response rating, Corn: 10
[8]; [21]
  Plant response rating, Corn: 10
[8]; [22]
  Corn plant response rating: 15
[9]; [19]
  Plant response rating, Lambsquarters: 50
[9]; [20]
  Plant response rating, Lambsquarters: 75
[9]; [21]
  Plant response rating, Lambsquarters: 90
[9]; [22]
  Lambsquarters plant response rating: 98
[10]; [19]
  Plant response rating, Foxtail, Giant: 0
[10]; [20]
  Plant response rating, Foxtail, Giant: 35
[10]; [21]
  Plant response rating, Foxtail, Giant: 65
[10]; [22]
  Foxtail, Giant plant response rating: 90
[11]; [19]
  Plant response rating, Barnyardgrass: 5
[11]; [20]
  Plant response rating, Barnyardgrass: 5
[11]; [21]
  Plant response rating, Barnyardgrass: 30
[11]; [22]
  Barnyardgrass plant response rating: 70
[12]; [19]
  Plant response rating, Ragweed: 85
[12]; [20]
  Plant response rating, Ragweed: 40
[12]; [21]
  Plant response rating, Ragweed: 75
[12]; [22]
  Ragweed plant response rating: 90
[13]; [19]
  Plant response rating, Ryegrass, Italian: 10
[13]; [20]
  Plant response rating, Ryegrass, Italian: 50
[13]; [21]
  Plant response rating, Ryegrass, Italian: 90
[13]; [22]
  Ryegrass, Italian plant response rating: 90
[14]; [19]
  Plant response rating, Waterhemp: 20
[14]; [20]
  Plant response rating, Waterhemp: 85
[14]; [21]
  Plant response rating, Waterhemp: 85
[14]; [22]
  Waterhemp plant response rating: 75
[15]; [19]
  Plant response rating, Velvetleaf: 15
[15]; [20]
  Plant response rating, Velvetleaf: 40
[15]; [21]
  Plant response rating, Velvetleaf: 65
[15]; [22]
  Velvetleaf plant response rating: 75
